From patent US9290473B2, “Inhibitors of phosphatidylinositol-3-kinase (PI3) and inducers of nitric oxide (NO)” (COUCIL OF SCIENTIFIC & INDUSTRIAL RESEARCH, priority 2009, dated 2016) come the findings set out here.

The structures appear in SMILES notation. pIC50: −log10 of the molar value. Like-named read-outs stand apart in the source and are kept apart here.

For data set [1], the system named is chronic myeloid leukemia cell line KU812. The data set is described as follows: Cell viability, trypan blue exclusion, KU812. The class given is cell-based. To be noted: Homo sapiens, 72 hours incubation. An excerpt: (§1) Following cancer cell lines were used: chronic myeloid leukemia cell lines K562, KU812; acute myeloid leukemia cell lines HL60, U937; T-lymphoblastic leukemia cell line Molt-4; prostate cancer cell line PC-3; breast cancer cell line MCF-7; pancreatic cancer cell line MIA PaCa-2. These cancer cell lines were maintained in tissue culture in standard growth medium containing 10% heat-inactivated fetal bovine serum (FBS). Normal human peripheral blood mononuclear cells (PBMC) were separated from whole blood by Ficoll/Hypaque density gradient centrifugation. Peripheral blood samples were collected from normal donors with due approval from the Human Ethics Committee of Indian Institute of Chemical Biology, Kolkata, India, and all experiments with human blood were conducted under an approved institutional Human Ethics committee protocol. Informed consent was provided according to the Declaration of Helsinki. Cancer cell lines and PBMC (5×10^3) in triplicate were incubated in 0.2 mL of standard growth medium containing 10% FBS with varying concentrations of test compounds of the present invention. After 72 hours of incubation, cells were collected by centrifugation (at 1000 g for 5 minutes) and cell-viability was determined by the trypan blue exclusion assay. At least 200 cells were examined in each sample. Because of monolayer culture, treated and untreated PC-3, MCF-7 and MIA PaCa-2 cells were detached from the wells by treatment with Cell Dissociation Solution (Sigma Chemical, St. Louis, Mo.) before counting. Data are represented as IC50 (minimum concentration required to inhibit the viability by 50%) in Table 5.

Data set [2] has as its system prostate cancer cell line PC-3. Description: Cell viability, trypan blue exclusion, PC-3. The class given is cell-based, human. As to conditions: 72 hours incubation.
Description: as §1

The test system of data set [3] is pancreatic cancer cell line MIA PaCa-2. The data set is described as follows: Cell viability, trypan blue exclusion, MIA PaCa-2. To be noted: 72 hours incubation, read-out: Activity (IC50) MIAPaCa-2. The class given is cell-based, human.
Description: as §1

The test system of another data set is MCF-7 xenografts. The data set is described as follows: Human breast adenocarcinoma (MCF-7) xenograft in nude mice. The class given is in vivo. To be noted: 100 mg/kg body weight oral twice a day for 10 days. As for the experimental part: MCF-7 cells were suspended to 5×10^7 cells/ml in Matrigel (BD Biosciences; 1 volume of cells with 1 volume of cold Matrigel). Nude female mice of 6 to 7 weeks of age (National Institute of Nutrition, Hyderabad, India) were injected with 0.2 ml of this cell suspension. Animals were left untreated until MCF-7 xenografts reached 200-300 mm^3.
Compound 1 (100 mg/kg body weight) or vehicle control were administered via oral route twice a day for 10 days (5 mice per group).
In general terms: In xenograft studies the graft and the host belong to different species.

The test system of another data set is normal human PBMC. Description: Apoptosis/necrosis of normal human PBMC by flow cytometry. The class given is cell-based. As to conditions: 30 μM, 24 hours. As for the experimental part:
FIG. 2C indicates flow cytometric determination of apoptosis and necrosis of normal human PBMC by Compound 1 (30 μM) and Compound 7 (30 μM) after incubation for 24 hours.
(In general: A flow cytometer gives signals particle by particle.)

As a reminder, the pIC50 is −log10 of the IC50, conventionally taken in molar units. For `C=CCc1ccc(O)c(O)c1` [Compound 1, 4-allyl-benzene-1,2-diol], the pIC50 is 4.60 in data set [1]; 4.46 in data set [2]; 4.15 to 4.60 in data set [2] (Homo sapiens, 72 h); 4.46 in data set [3]; 4.15 to 4.52 in data set [3] (Homo sapiens, MIA PaCa-2, 72 h). In addition, the “In vivo efficacy in MCF-7 xenografts” value in the data set with MCF-7 xenografts is given as “further confirmed”. In addition, in the data set with normal human PBMC, the “Apoptosis and necrosis of normal human PBMC by flow cytometry” value was “remained unaffected”.
